Measured values from patent publication US20040037856A1, “Use of compounds containing a thio-ether, sulphoxide or sulphone function as cosmetic anti-pollution agent” (priority 2000, published 2004).

Columns and labels:
[1] = tested on: human keratinocytes; experiment: Ozone-induced lipid hydroperoxides (DCFH-DA fluorescence) in monolayer culture of human keratinocytes; assay type: cell-based; conditions: for % fluorescence observed ± SEM in the presence of CMC, relative to the unprotected controls: 24 h pretreatment with CMC 0.5 mg/ml, CMC 1 mg/ml in PBS during exposure (b102 says 200 μM), controls = 100%, n=4
Method: Ozone has the capacity to oxidize cell constituents, especially generating carbonylated proteins and lipid hydroperoxides. Quantification of the lipid hydroperoxides is one means of measuring the oxidative stress induced by exposing skin tissue to this pollutant. A decrease in their content indicates a protective effect. The study was performed on a monolayer culture of human keratinocytes. The cells are inoculated on D-3 into 48-well dishes at a rate of 25 000 cells/cm^2 in 500 μl of culture medium. The incubations are performed at 37° C., 5% CO2 under a humid atmosphere. The cells were pretreated for 24 hours with CMC (0.5 mg/ml, half-maximal dose that is nontoxic to the cells, dissolved in the culture medium). Hydroperoxides constitute an intracellular stress marker. They are detected and quantified by means of a fluorescence technique (Lebel C. P., Ischiropoulos H. and Bondy S. C. (1992) Evaluation of the probe 2,7-dichlorofluorescin as an indicator of Reactive Oxygen Species formation and oxidative stress. Chem. Res. Toxicol.; 5: 227-231). In the presence of intracellular hydroperoxides and peroxidases, DCFH is oxidized to fluorescent 2,7-dichlorofluorescein (DCF). The cells, pretreated for 24 hours with CMC, are then washed with PBS buffer and placed in contact for 30 minutes with a solution of DCFH-DA (500 μl/well), prepared in the culture medium to a concentration of 320 μM. The cells are again rinsed with PBS buffer and then placed in contact with a CMC solution at a concentration of 1 mg/ml in PBS (100 μl/well). They are then exposed to ozone (1 ppm), under a humid atmosphere, in an incubator set at 37° C. The formation of fluorescent DCF (excitation filter at 485 nm and emission filter at 530 nm) resulting from the production of hydroperoxides is measured after different times of exposure to ozone: 0, 5, 10 and 20 minutes. Toxicity of ozone toward human keratinocytes in culture, in the absence and presence of S-carboxymethylcysteine at a concentration of 200 μM, as a function of the exposure time (n=4). For each time, the fluorescence values of the unprotected controls are set at 100%. The results in the presence of CMC are then expressed relative to this control value. […] This protection is at a maximum from 5 minutes of exposure onward (67.7% drop in induced stress). It is still significant after 20 minutes of exposure (53.5% drop in induced stress) relative to the unprotected controls.

[2] = tested on: human keratinocytes; experiment: Toxicity of CMC to the keratinocytes (nontoxic dose); assay type: cell-based; conditions: dissolved in the culture medium, 24 hours
Method: The study was performed on a monolayer culture of human keratinocytes. The cells are inoculated on D-3 into 48-well dishes at a rate of 25 000 cells/cm^2 in 500 μl of culture medium. The incubations are performed at 37° C., 5% CO2 under a humid atmosphere.
The cells were pretreated for 24 hours with CMC (0.5 mg/ml, half-maximal dose that is nontoxic to the cells, dissolved in the culture medium).

## N[C@@H](CSCC(=O)O)C(=O)O [CMC, S-carboxymethylcysteine]
[1]; 5 min. of contact with ozone (1 ppm)
  % fluorescence observed ± SEM in the presence of CMC, relative to the unprotected controls: 32.4 ± 5.9%
[1]; 5 minutes of exposure to ozone
  drop in induced stress relative to the unprotected controls: 67.7%
[1]; 10 min. of contact with ozone (1 ppm)
  % fluorescence observed ± SEM in the presence of CMC, relative to the unprotected controls: 33.7 ± 5.0%
[1]; 20 min. of contact with ozone (1 ppm)
  % fluorescence observed ± SEM in the presence of CMC, relative to the unprotected controls: 46.5 ± 8.5%
[1]; 20 minutes of exposure to ozone
  drop in induced stress relative to the unprotected controls: 53.5%
[1]; human keratinocytes in vitro, ozone exposure
  protective effect against the effect induced by ozone (oxidative stress): highly significant protective effect
[2]
  half-maximal dose that is nontoxic to the cells: 0.5 mg/mL
